One may read the IC50 as the midpoint of a concentration-inhibition curve.

Sequence of NanoLuc (Q9GV45 28-196 with tags or gaps with the stated changes limits assumed): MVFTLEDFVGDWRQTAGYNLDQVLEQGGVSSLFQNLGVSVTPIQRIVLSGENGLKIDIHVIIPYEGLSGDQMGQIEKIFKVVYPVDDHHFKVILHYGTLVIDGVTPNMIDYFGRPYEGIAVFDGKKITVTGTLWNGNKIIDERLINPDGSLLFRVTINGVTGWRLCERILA

One assay addresses NanoLuc (Oplophorus gracilirostris, UniProt Q9GV45, A31E/A60N/A81I/F95D/I117V/K70R/L54V/L99Q/M102K/N193R/P142E/Q151K/Q38R/Q45L/V71I/Y165I). Put plainly: Inhibitor IC50 determination. The assay is classed as biochemical.
Settings: not given
The protocol: The following example provides the IC50 values for the compounds disclosed herein. NANOLUC® enzyme was diluted to 0.4 ng/ml in CO2 independent media+10% FBS to make the detection reagent. A 3× dilution series of each inhibitor was then made in the detection reagent. A “no inhibitor” control was also made for each sample. 50 ul of each inhibitor dilution was mixed with 50 ul of NanoGlo® buffer containing 20 μM furimazine (final furimazine concentration is 10 μM, which is at Km.), and luminescence was measured. Each sample was normalized to the “no inhibitor” control. The IC50 values were then determined using GraphPad Prism (log[inhibitor] vs. normalized response).
The compound `CCN(C(=O)Cn1c(C(=O)N[C@H]2CC[C@H](C(=O)NCCCCCNC(=O)CCl)CC2)cc2sccc21)c1cccc(C)c1` [JRW-0844, N-(trans-4-((5-(2-chloroacetamido)pentyl)carbamoyl)cyclohexyl)-4-(2-(ethyl(m-tolyl)amino)-2-oxoethyl)-4H-thieno[3,2-b]pyrrole-5-carboxamide] had an IC50 of 41 nM.

The compound `CCc1cccc(N(CC)C(=O)Cn2c(C(=O)N[C@H]3CC[C@H](C(=O)NCCCCCCI)CC3)cc3ccccc32)c1` [JRW-0622, 1-(2-(ethyl(3-ethylphenyl)amino)-2-oxoethyl)-N-(trans-4-((6-iodohexyl)carbamoyl)cyclohexyl)-1H-indole-2-carboxamide] yielded an IC50 of 0.14 nM.

Regarding `CCc1cccc(N(CC)C(=O)Cn2c(C(=O)N[C@H]3CC[C@H](C(=O)NCCCCCCCCNC(=O)CCOCCOCCNC(=O)c4ccc5c(c4)C4(OC5=O)c5ccc(N(C)C)cc5Oc5cc(N(C)C)ccc54)CC3)cc3ccccc32)c1` [JRW-0920, N-(trans-4-((1-(3′,6′-bis(dimethylamino)-3-oxo-3H-spiro[isobenzofuran-1,9′-xanthen]-6-yl)-1,11-dioxo-5,8-dioxa-2,12-diazaicosan-20-yl)carbamoyl)cyclohexyl)-1-(2-(ethyl(3-ethylphenyl)amino)-2-oxoethyl)-1H-indole-2-carboxamide], it took 1.7 nM to reach half-maximal inhibition (IC50).

`CCc1cccc(N(CC)C(=O)Cn2c(C(=O)N[C@H]3CC[C@H](C(=O)NCCCCCCNC(=O)CCc4ccc5n4[B-](F)(F)[N+]4=C(C)C=C(C)C4=C5)CC3)cc3ccccc32)c1` [JRW-0827, N-(trans-4-((6-(3-(5,5-difluoro-7,9-dimethyl-5H-514,614-dipyrrolo[1,2-c:2′,1′-f][1,3,2]diazaborinin-3-yl)propanamido)hexyl)carbamoyl)cyclohexyl)-1-(2-(ethyl(3-ethylphenyl)amino)-2-oxoethyl)-1H-indole-2-carboxamide] returned a half-inhibitory concentration (IC50) of 2.7 nM.

Consider `CCN(C(=O)Cn1c(C(=O)N[C@H]2CC[C@H](C(=O)NCCCCCCNC(=O)CCOCCOCCNC(=O)CCN3C(=O)C=CC3=O)CC2)cc2sccc21)c1cccc(C)c1` [JRW-0559], for which the midpoint of inhibition, the IC50, lay at 33 nM.

Compound `CCc1cccc(N(CC)C(=O)Cn2c(C(=O)N[C@H]3CC[C@H](C(=O)NCCCCCCCCNC(=O)CCc4ccc5n4[B-](F)(F)[N+]4=C(C)C=C(C)C4=C5)CC3)cc3ccccc32)c1` [JRW-0888, N-(trans-4-((8-(3-(5,5-difluoro-7,9-dimethyl-5H-5λ4,6λ4-dipyrrolo[1,2-c:2′,1′-f][1,3,2]diazaborinin-3-yl)propanamido)octyl)carbamoyl)cyclohexyl)-1-(2-(ethyl(3-ethylphenyl)amino)-2-oxoethyl)-1H-indole-2-carboxamide] registered an IC50 of 26 nM.

The compound `CCc1cccc(N(CC)C(=O)Cn2c(C(=O)N[C@H]3CC[C@H](C(=O)NCCCCCCNC(=O)c4ccc5c(c4)C4(OC5=O)c5ccc(N(C)C)cc5Oc5cc(N(C)C)ccc54)CC3)cc3ccccc32)c1` [JRW-822, N-(trans-4-((6-(3′,6′-bis(dimethylamino)-3-oxo-3H-spiro[isobenzofuran-1,9′-xanthene]-6-carboxamido)hexyl)carbamoyl)cyclohexyl)-1-(2-(ethyl(3-ethylphenyl)amino)-2-oxoethyl)-1H-indole-2-carboxamide] returned a half-inhibitory concentration (IC50) of 3.3 nM.

`CCN(C(=O)Cn1c(C(=O)N[C@H]2CC[C@H](C(=O)NCCCCCCCCNC(=O)c3ccc4c(c3)C(=O)OC43c4ccc(O)cc4Oc4cc(O)ccc43)CC2)cc2sccc21)c1cccc(C)c1` [JRW-0883]: the IC50 was 5.4 nM.

Regarding `CCN(C(=O)Cn1c(C(=O)N[C@H]2CC[C@H](C(=O)NCCCCCC(=O)NCCOCCOCCOCCOCCC(=O)ON3C(=O)CCC3=O)CC2)cc2sccc21)c1cccc(C)c1` [JRW-0533], it took 92 nM to reach half-maximal inhibition (IC50).

On to `CCc1cccc(N(CC)C(=O)Cn2c(C(=O)N[C@H]3CC[C@H](C(=O)NCCCCCCCCNC(=O)CCC(=O)NCCC4=C5C=CC=[N+]5[B-](F)(F)n5c(C)cc(C)c54)CC3)cc3ccccc32)c1` [JRW-1081, N1-(2-(5,5-difluoro-1,3-dimethyl-5H-5λ4,6λ4-dipyrrolo[1,2-c:2′,1′-f][1,3,2]diazaborinin-10-yl)ethyl)-N4-(8-(trans-4-(1-(2-(ethyl(3-ethylphenyl)amino)-2-oxoethyl)-1H-indole-2-carboxamido)cyclohexane-1-carboxamido)octyl)succinamide], for which 6 nM corresponded to half-maximal inhibition (IC50).

Compound `CCN(C(=O)Cn1c(C(=O)N[C@H]2CC[C@H](C(=O)NCCCCCCCC(=O)Oc3ccc(C#N)cc3)CC2)cc2sccc21)c1cccc(C)c1` [JRW-0834, 4-cyanophenyl 8-(trans-4-(4-(2-(ethyl(m-tolyl)amino)-2-oxoethyl)-4H-thieno[3,2-b]pyrrole-5-carboxamido)cyclohexane-1-carboxamido)octanoate] yielded an IC50 of 3.3 nM.

In the case of `CCc1cccc(N(CC)C(=O)Cn2c(C(=O)N[C@H]3CC[C@H](C(=O)NCCCCCCCC(=O)OC)CC3)cc3ccccc32)c1` [JRW-0597, methyl 8-(trans-4-(1-(2-(ethyl(3-ethylphenyl)amino)-2-oxoethyl)-1H-indole-2-carboxamido)cyclohexane-1-carboxamido)octanoate], the IC50 amounted to 0.16 nM.

For `CCc1cccc(N(CC)C(=O)Cn2c(C(=O)N[C@H]3CC[C@H](C(=O)NCCCCCCCC(=O)Oc4ccccc4)CC3)cc3ccccc32)c1` [JRW-0605, phenyl 8-(trans-4-(1-(2-(ethyl(3-ethylphenyl)amino)-2-oxoethyl)-1H-indole-2-carboxamido)cyclohexane-1-carboxamido)octanoate], the 50% inhibitory concentration (IC50) amounted to 0.12 nM.

Compound `CCc1cccc(N(CC)C(=O)Cn2c(C(=O)N[C@H]3CC[C@H](C(=O)NCCCCCCNC(=O)CCOCCOCCNC(=O)c4ccc5c(c4)C4(OC5=O)c5ccc(N(C)C)cc5Oc5cc(N(C)C)ccc54)CC3)cc3ccccc32)c1` [JRW-0915, N-(trans-4-((1-(3′,6′-bis(dimethylamino)-3-oxo-3H-spiro[isobenzofuran-1,9′-xanthen]-6-yl)-1,11-dioxo-5,8-dioxa-2,12-diazaoctadecan-18-yl)carbamoyl)cyclohexyl)-1-(2-(ethyl(3-ethylphenyl)amino)-2-oxoethyl)-1H-indole-2-carboxamide] had a half-maximal inhibitory concentration (IC50) of 5.2 nM.

The assay is the same for the next values; noted with them: 0.4 ng/ml NANOLUC in CO2 independent media+10% FBS; final furimazine 10 μM; no pre-incubation noted; read-out: IC50.
As for “N-(trans-4-((1-(3′,6′-dihydroxy-3-oxo-3H-spiro[isobenzofuran-1,9′-xanthen]-5,6-yl)-1,11-dioxo-5,8-dioxa-2,12-diazaicosan-20-yl)carbamoyl)cyclohexyl)-1-(2-(ethyl(3-ethylphenyl)amino)-2-oxoethyl)-1H-indole-2-carboxamide [JRW-0921]”, the half-inhibitory concentration (IC50) was determined as 1.1 nM.

For “N-(trans-4-((6-(3′,6′-diamino-3-oxo-3H-spiro[isobenzofuran-1,9′-xanthene]-5,6-carboxamido)hexyl)carbamoyl)cyclohexyl)-1-(2-(ethyl(3-ethylphenyl)amino)-2-oxoethyl)-1H-indole-2-carboxamide [JRW-0859]”, the half-maximal inhibitory concentration (IC50) stood at 2 nM.

As for `CCN(C(=O)Cn1c(C(=O)N[C@H]2CC[C@H](C(=O)NCCCCCCNC(=O)c3ccc4c(c3)C3(OC4=O)c4ccc(N)cc4Oc4cc(N)ccc43)CC2)cc2sccc21)c1cccc(C)c1` [JRW-0863], the IC50 came to 36 nM.

(Values after patent publication US10815247B2, “Functionalized NANOLUC inhibitors” (PROMEGA CORPORATION, priority 2016, dated 2020).)
